Data on 28 compounds can be found in the SangsterLogP compilation.

A word on the logP: it is a log measure of how a compound divides between an organic and an aqueous phase. A lower logP goes with lower lipophilicity. `CCCCCCCCCCCCc1ccccc1` yielded a log partition coefficient (logP) of 8.65.

Compound `CCCCCCCCCCCc1ccccc1` registered a logP of 8.14.

For `CCCCCCCCCCC(CC)c1ccccc1` (stereo not drawn), the log partition coefficient (logP) worked out at 8.65.

Consider `CCCCCCCCC(CCCC)c1ccccc1` (stereo not drawn), for which the logP is 8.56.

In turn, `CCCCCCCCCCCCCCc1ccccc1` gave a logP of 9.95.

Turning to `CCCCCCC(CCCC)c1ccccc1` (stereo not drawn), the logP was determined as 7.45.

In turn, `CCCCCC(CCCCC)c1ccccc1` came in with a logP of 7.45.

`CCCCCCCCCCCCC(C)c1ccccc1` (stereo not drawn): the logP amounted to 9.29.

The compound `CCCCCCCCCCCCCc1ccccc1` displayed a logP of 9.36.

Compound `CCCCCCCCC(CC)c1ccccc1` (stereo not drawn) returned a lipophilicity (logP) of 7.53.

Regarding `CCCCCCCC(CCCCC)c1ccccc1` (stereo not drawn), the logP worked out at 8.56.

As to `CCCCCCCCCC(CC)c1ccccc1` (stereo not drawn), the logP was found to be 8.1.

In turn, `CCCCCCCCCC(CCCC)c1ccccc1` (stereo not drawn) registered a logP of 9.16.

For `CCCCCC(CCCC)c1ccccc1` (stereo not drawn), the logP was determined as 6.9.

`CCCCCCCCCCC(C)c1ccccc1` (stereo not drawn) displayed a logP of 8.19.

The compound `CCCCCCCCCCCC(CC)c1ccccc1` (stereo not drawn) registered a logP of 9.29.

For `CCCCCCCCCC(C)c1ccccc1` (stereo not drawn), the logP is 7.63.

As for `CCCCCCCCCCCC(C)c1ccccc1` (stereo not drawn), the logP amounted to 8.77.

As for `CCCCCCCCCCC(CCC)c1ccccc1` (stereo not drawn), the logP amounted to 9.25.

`CCCCCCC(CCCCC)c1ccccc1` (stereo not drawn) had a logP of 8.01.

On to `CCCCCCCC(CC)c1ccccc1` (stereo not drawn), for which the logP amounted to 7.

`CCCCCCCCCC(CCC)c1ccccc1` (stereo not drawn) displayed a logP of 8.62.

`CCCCCCCCC(CCC)c1ccccc1` (stereo not drawn) returned a logP of 8.07.

In the case of `CCCCCCCC(CCCC)c1ccccc1` (stereo not drawn), the lipophilicity (logP) worked out at 8.01.

`CCCCCCCCC(CCCCC)c1ccccc1` (stereo not drawn): the lipophilicity (logP) was 9.16.

`CCCCCCCC(CCC)c1ccccc1` (stereo not drawn) came in with a logP of 7.59.

Consider `CCCCCCC(CCC)c1ccccc1` (stereo not drawn), for which the log partition coefficient (logP) came to 7.

Consider `CCCCCCCCC(C)c1ccccc1` (stereo not drawn), for which the logP was determined as 7.06.
